Data as given in US20260137082A1 (priority 2021, published 2026).
Values after ≈ are worked out from the molar mass of the structure shown. Where two headings read alike, the source gives them in different places.

Experiments:
[1] = tested on: Fusarium graminearum (Gibberella zeae) strain K-6102; assay type: cell-based; conditions: solo fungicide, 4 days, 24° C., OD 620 nm
Fusarium asiaticum = assay: microbe, parasite or virus in culture; conditions: 72 h, read-out: EC50 Value
Experimental: The fungicidal activity of cyclobutrifluram, fludioxonil (FDL), and mixtures thereof with various weight ratios (e.g., 10:1 and 1:50) of cyclobutrifluram and FDL was tested against Fusarium asiaticum and Fusarium pseudograminearum.
Specifically, according to the results of pre-experiment, the best concentration ranges for determination of the sensitivity of pathogens to cyclobutrifluram, FDL and mixtures thereof were respectively determined, and 5-7 concentration gradients were set to make the inhibition rate at the minimum concentration close to 10% and the inhibition rate at the highest concentration close to 90%. […]
Mycelial plugs in the edge of colony were prepared by hole puncher with a diameter of 5 mm. […] After cultured in an incubator at 25° C. for three days in darkness, the diameters of every mycelial colony on PDA plates were measured twice perpendicularly and then averaged. […]
The EC50 values of each tested agent and each mixture were calculated by the linear regression analysis between the probability value of the inhibition rate and the log value of the series of concentrations. The co-toxicity coefficient (CTC) of the mixtures was calculated and evaluated according to the Sun-YP method.

Gibberella fujikuroi = assay: microbe, parasite or virus in culture; assay type: cell-based; conditions: Fusarium fujikuroi, 72 h, read-out: EC50 Value

| SMILES | Efficacy (%, n = 5) ([1]; 0.1 ppm) [%] | Efficacy (%, n = 5) ([1]; 1 ppm) [%] | Efficacy (%, n = 5) ([1]; 10 ppm) [%] | EC50 (Fusarium asiaticum) [µg/mL] | EC50 (Gibberella fujikuroi) [µg/mL] |
| --- | --- | --- | --- | --- | --- |
| N#CC1=CN=CC1c1cccc2c1OC(F)(F)O2 (stereo not shown) [FDL, 4-(2,2-difluoro-benzo[1,3]dioxol-4-yl)pyrrole-3-carbonitrile] | 20.4 | 43.4 | 65.4 | 0.0196 (≈ 0.079 µM) | 0.173 (≈ 0.697 µM) |
| O=C(NC1CCC1c1ccc(Cl)cc1Cl)c1cccnc1C(F)(F)F (stereo in doubt) [cyclobutrifluram, N-[(1,2 cis)-2-(2,4-dichlorophenyl)cyclobutyl]-2-(trifluoromethyl)pyridine-3-carboxamide] | 30.8 | 31.3 | 34.1 | 0.0214 (≈ 0.055 µM) | 0.75 (≈ 1.93 µM) |
